Measurements published in article PMC10619143, “Development of a covalent cereblon-based PROTAC employing a fluorosulfate warhead” (RSC Chemical Biology, 2023).

Target: T1, cereblon (CRBN) (Homo sapiens, UniProt Q96SW2)
T1 construct: CRBN-DDB1ΔB complex; with DDB1ΔB
Test: intact protein MS covalent labelling and MS/MS site mapping (also cellular NanoBRET IC50 […] at […] h)
Format: binding

T1 sequence (Q16531 2-1140): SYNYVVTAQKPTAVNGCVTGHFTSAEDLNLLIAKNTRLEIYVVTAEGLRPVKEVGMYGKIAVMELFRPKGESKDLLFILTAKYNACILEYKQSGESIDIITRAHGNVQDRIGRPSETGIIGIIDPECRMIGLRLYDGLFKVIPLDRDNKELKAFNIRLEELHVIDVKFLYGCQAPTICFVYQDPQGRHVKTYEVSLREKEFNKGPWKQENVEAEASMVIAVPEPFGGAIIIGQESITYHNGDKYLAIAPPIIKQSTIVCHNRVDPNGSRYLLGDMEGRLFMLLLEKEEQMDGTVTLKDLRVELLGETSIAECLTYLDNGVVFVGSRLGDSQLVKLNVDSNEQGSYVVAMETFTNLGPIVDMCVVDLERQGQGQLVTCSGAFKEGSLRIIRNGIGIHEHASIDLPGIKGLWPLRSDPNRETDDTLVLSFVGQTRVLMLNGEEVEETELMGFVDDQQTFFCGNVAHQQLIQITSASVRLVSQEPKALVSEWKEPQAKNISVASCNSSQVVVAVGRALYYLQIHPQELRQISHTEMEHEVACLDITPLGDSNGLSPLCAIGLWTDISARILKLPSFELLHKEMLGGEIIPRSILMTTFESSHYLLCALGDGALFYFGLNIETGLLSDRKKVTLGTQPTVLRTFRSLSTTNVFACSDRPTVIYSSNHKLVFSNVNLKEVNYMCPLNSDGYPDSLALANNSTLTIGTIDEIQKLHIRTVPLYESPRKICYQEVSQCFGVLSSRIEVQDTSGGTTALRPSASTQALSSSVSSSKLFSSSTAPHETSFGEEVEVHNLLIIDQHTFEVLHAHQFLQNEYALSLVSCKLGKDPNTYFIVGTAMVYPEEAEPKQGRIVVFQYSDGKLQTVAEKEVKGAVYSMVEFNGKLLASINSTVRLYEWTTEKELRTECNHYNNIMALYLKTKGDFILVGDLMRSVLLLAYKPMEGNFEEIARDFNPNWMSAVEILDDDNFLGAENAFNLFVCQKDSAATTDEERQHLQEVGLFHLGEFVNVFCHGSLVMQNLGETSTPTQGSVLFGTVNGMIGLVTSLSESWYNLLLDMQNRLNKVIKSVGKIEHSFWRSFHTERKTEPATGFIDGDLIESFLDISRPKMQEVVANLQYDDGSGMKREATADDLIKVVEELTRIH
T1 sequence (Q96SW2 whole entry): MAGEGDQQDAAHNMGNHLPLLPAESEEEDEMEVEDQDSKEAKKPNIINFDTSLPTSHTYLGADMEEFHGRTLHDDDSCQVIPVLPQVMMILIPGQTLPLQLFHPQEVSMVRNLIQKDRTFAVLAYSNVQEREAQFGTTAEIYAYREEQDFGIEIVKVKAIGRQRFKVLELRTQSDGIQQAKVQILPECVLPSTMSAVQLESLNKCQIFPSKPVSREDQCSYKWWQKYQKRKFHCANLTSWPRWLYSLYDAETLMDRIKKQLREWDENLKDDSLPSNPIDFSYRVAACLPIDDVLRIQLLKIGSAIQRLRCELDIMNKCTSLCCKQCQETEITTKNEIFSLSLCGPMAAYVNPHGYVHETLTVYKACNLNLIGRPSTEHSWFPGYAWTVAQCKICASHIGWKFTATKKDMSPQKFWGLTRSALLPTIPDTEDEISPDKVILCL

## Cc1sc2c(c1C)C(c1ccc(Cl)cc1)=N[C@@H](CC(=O)Nc1ccc(OCCOCCOCCOCCNc3cc(OS(=O)(=O)F)cc4c3C(=O)N(C3CCC(=O)NC3=O)C4=O)cc1)c1nnc(C)n1-2 (stereo partly shown) [FS-ARV-825]
  % labelled (10 μM, 24 h): ~ 50 % labelled (10 μM, 24 h)
